This note sets out measurements from US20220387479A1, “NOVEL POVIDONE-IODINE PHARMACEUTICAL PREPARATION AND USES THEREOF” (priority 2021, published 2022).

Like-named read-outs stand apart in the source and are kept apart here.

The test system of the assay is SARS-CoV-2, USA-WA1/2020 strain. Type of assay: cell-based. Particulars: tested conc. 50%; for LRV (log reduction value): compared to the virus control; for Virus titer: lower limit of detection 0.67.

`CCO` [Ethanol]: the “LRV (log reduction value)” value was above 4.0 (incubation time 15 seconds), above 3.83 (incubation time 30 seconds), above 4.0 (incubation time 60 seconds) and above 3.83 (incubation time 5 minutes). Besides, the Virus titer reads like this: (incubation time 15 seconds) <0.67 Log10 CCID50 of virus per 0.1 mL; (incubation time 30 seconds) <0.67 Log10 CCID50 of virus per 0.1 mL; (incubation time 60 seconds) <0.67 Log10 CCID50 of virus per 0.1 mL; (incubation time 5 minutes) <0.67 Log10 CCID50 of virus per 0.1 mL.
